Experiments:
RXR = experiment: RXR-mediated transcription, RXRE luciferase reporter in MCF7 cells; format: cell-based
Source text: (§1) The effect of various compounds of the invention on RAR-mediated transcription in MCF7 breast cancer cells was examined by measuring their effect on the transcription of a luciferase reporter gene under the control of a TK promoter placed downstream of a RAR response element. In addition, the effect of the compounds on the closely related RXR-mediated transcription was examined by measuring their effect on the transcription of a luciferase reporter gene under the control of a TK promoter placed downstream of a RXR response element.
(§2) Typically, 10,000 cells were plated in 96 wells plates in phenol red-free RPMI medium supplemented with 10% charcoal-stripped Fetal Bovine Serum. After 24 hours, cells were transfected with 0.1 μg of luciferase reporter plasmid and 0.01 μg of a reporter plasmid expressing renilla luciferase (RLuc) gene under the control of a SV40 promoter, using Fugene 6 transfection reagent (0.5 μl/well Promega Corporation). Cells were treated in triplicate with compounds or vehicle (DMSO) for 24 hours. Luciferase and renilla luciferase activities were measured using Dual-Glo reagent (Promega Corporation). Luciferase activity was normalized in each well for renilla activity.

C2Cl2 cells [1] = experiment: Q-RT PCR of myofiber-degradation associated genes in long term C2Cl2 cultures; format: cell-based; details: day 10, normalized for RPLP0
Protocol: Quantitative RT-PCR was performed on RNA prepared from cell treated as in Example 9. At day 10 of the experiment, cells were rinsed in HBSS (without calcium or magnesium) and RNA was prepared using FastLane Cell cDNA Kit (Qiagen). Quantitative PCR was performed using Eppendorf and SYBR amplification mix (Sigma-Aldrich) using the gene specific primer combination given in Table 3. Data were normalized for ribosomal housekeeping gene RPLP0

C2Cl2 cells [2] = experiment: myoblast fusion in long term C2Cl2 cultures (MHC immunocytochemistry); format: cell-based; details: for fusion of single cells into multinucleated C2Cl2 myotubes: long-term culture, suboptimal RPMI media with 2% horse serum
Protocol: The effect of compounds on myoblast fusion was examined in C2Cl2 cells maintained in RPMI media supplemented with 2% horse serum. C2Cl2 myoblastic cells where purchased from the American Type Culture Collection (ATCC) and maintained undifferentiated in RPMI media (Corning) supplemented with 2 mM L-Alanine-L-Glutamine (ATCC) and 1 mM pyruvate (Corning). Undifferentiated cells where maintained below 70% confluence. For long term cultures and compound treatment, cells where plated at high density CellBIND Culture Dishes (corning 3294, 3296, 3337) and in RPMI supplemented with 2% Horse Serum (Gibco) and 2 mM L-Alanine-L-Glutamine (ATCC) and 1 mM pyruvate (Corning). Compounds were dissolved in DMSO at 1000 time the final concentration and diluted 1-in-1000 in the media covering the cells. Media and compounds were changed daily. For immunocytochemistry, cells were fixed in 2% PFA in HBSS for 10 minutes and left in HBSS at 4° under humidified atmosphere and processed for immunocytochemistry. For myosin heavy chain detection (MHC), cells were first incubated in 100 ul-1 ml 0.15 M Glycine in DPBS for 10 minutes, rinse with DPBS. 100 ul-1 ml 0.5% Triton-X in DPBS was added for 10 minutes, rinsed with DPBS, and followed by incubation with 100 ul blocking agent (10% goat serum in DPBS) for 30 min at room temperature. MF20 primary antibody in 10% goat serum in DPBS was added at 1/60 dilution for 30 min at room temperature and rinsed three times with 100 ul DPBS. IgG2b goat anti mouse secondary antibody (Jackson Immuno-Research) was added at 1:1000 in 10% goat serum in DPBS for exactly 30 min at room temperature then rinsed 3 times with 100 ul DPBS. A final rinse in H2O was performed and cells were covered with two drops of Elvanol and cover gently with cover slip and allowed to dry in the dark for 24-48 hours.

C2Cl2 myoblasts = experiment: myotube fusion and degeneration in differentiated C2Cl2 cells left in exhausted media; format: cell-based; details: 200 nM pre-treatment
Protocol: C2Cl2 myoblasts were seeded at 100,000 in 30 mm plate in growth medium (Phenol red-free RMPI containing 10% FBS, Sodium pyruvate and Ala-Glu), and “pre-treated” with DMSO or 200 nM of compounds 13 or 17. At confluence cells were shifted to differentiation media (high glucose DMEM, +0.2% HS+1× Insulin/Transferrin/Selenium (Life Tech 41400-045)+Glutamine, without Pyruvate). Fully differentiated C2Cl2-derived myotubes were left in culture without media renewal for 8 days followed by media renewal and microscopic examination.

aqueous solubility = format: physicochemical
mouse pharmacokinetics = format: in vivo; details: mice
Protocol: Mouse pharmacokinetics studies were conducted in female athymic nude or male C57/B6 mice (n=3). Due to its very poor aqueous solubility, compound 17 was formulated in 66% PEG-400/33% H2O-1% Tween-80. In contrast compound 13 was formulated in 66% PEG-400/33% H2O. Compounds were administered PO (30 mg/kg) or IV (5 mg/kg), and plasma concentrations were measured by UV/HPLC.

RAR = experiment: RAR-mediated transcription, RARE-tk luciferase reporter in MCF7 cells; format: cell-based
Source text: as §1, §2

purified rat liver HDAC = purified rat liver HDAC inhibition; format: biochemical; details: relative to compound 17
Protocol: (§3) The effect of compounds on the enzymatic activity of purified recombinant human HDAC-1, -2, -3, -6, and -8 activity and of purified rat liver HDAC was examined by measuring the deacetylation of synthetic peptides in various preparations of HDACs. HDAC assays were performed using a two-step enzymatic reaction where enzyme activity is correlated to the release of […] (AMC). AMC fluorescence is measured in a fluorescent plate reading using λex380 nm and λen440 nm.
(§4) The reaction was allowed to proceed for 40 min at 37° C., after which developer solution (0.5% trypsin, 10 μM trichostatin A (TSA)) was added to obtain a final concentration of 0.1% trypsin, 2 μM TSA. After 30 minutes at room temperature, the amount of free fluorogenic AMC was measured as described above.

[3] = system: Lys40 acetylated alpha tubulin; experiment: intracellular acetylation of alpha-tubulin in BE-2C cells; format: cell-based; details: 16 hours
Protocol: The effect of certain compounds on intracellular acetylation of target proteins was tested in high risk neuroblastoma cells, BE-2C and IMR-32 cells.
BE-2C cells were grown to confluence in phenol-red-free RPMI media supplemented with 10% FBS and 2.5 mM Ala-Glu. […] Total and Lys 40 acetylated alpha tubulin were detected using specific antibodies.
Beta actin, total and Lys382 acetylated p53, and Lys40 acetylated alpha, and total tubulin were detected using antibodies (Cell Signaling #8557, #2524 #2525, #12152 and #2144 respectively) using manufacturer recommended conditions.

[4] = system: MDA-MB-231 breast cancer cells; experiment: cytotoxicity, cell survival (CellTiterGlo) in MDA-MB-231; format: cell-based; details: MDA-MB-231 cells
Protocol: (§5) The cytotoxicity of compounds was examined and directly compared to compound 17, by measuring cell survival of clonal tumor cell lines IMR-32, BE2C (neuroblastoma), as well as MDA-MB-231, BT20, HCC-38 (Basal) and MCF7 (luminal) breast cancer cells (ATCC). Cells were cultured in phenol red-free RPMI medium supplemented with 10% FBS and 1 mM Ala-Glu. Typically, 10,000-20,000 cells/well were plated in a 96 well plate (Costar 3197). Cells were exposed to compounds or vehicle (1% DMSO final). Cells were maintained in the presence of compound for four or five days. Media and compounds were renewed every 48 hours. Cell survival was measured using the luminescence CellTiterGlo kit (Promega Corporation) and expressed as relative light unit as fold over DMSO.

[5] = biological target: purified recombinant human HDAC-1 (Homo sapiens, UniProt Q13547); experiment: HDAC-1 enzymatic inhibition (AMC fluorogenic peptide deacetylation); format: biochemical; details: up to
purified recombinant human HDAC-1, sequence (Q13547 whole entry): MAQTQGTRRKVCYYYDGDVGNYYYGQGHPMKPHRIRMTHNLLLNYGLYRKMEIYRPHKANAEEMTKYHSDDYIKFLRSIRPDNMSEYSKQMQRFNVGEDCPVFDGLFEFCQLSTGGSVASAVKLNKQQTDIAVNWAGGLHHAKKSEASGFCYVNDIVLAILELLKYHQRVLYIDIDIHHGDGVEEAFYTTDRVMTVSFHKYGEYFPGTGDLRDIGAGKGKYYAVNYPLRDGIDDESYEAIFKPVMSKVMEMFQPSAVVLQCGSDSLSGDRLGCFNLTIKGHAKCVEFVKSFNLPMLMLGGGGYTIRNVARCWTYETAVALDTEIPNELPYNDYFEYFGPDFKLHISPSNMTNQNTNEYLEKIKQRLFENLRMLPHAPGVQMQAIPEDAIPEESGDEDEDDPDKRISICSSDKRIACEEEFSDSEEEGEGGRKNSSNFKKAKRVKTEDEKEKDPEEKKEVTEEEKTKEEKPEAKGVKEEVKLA
Protocol: as §3, §4

[6] = system: BE-2C neuroblastoma cells; experiment: cytotoxicity, cell survival (CellTiterGlo) in BE-2C; format: cell-based; details: BE-2C cells
Protocol: as §5

[7] = biological target: T1, purified recombinant human HDAC-8 (Homo sapiens, UniProt Q9BY41); experiment: HDAC-8 enzymatic inhibition (Boc-Lys(Tfa)-AMC / HDAC-Glo I/II); format: biochemical; details: relative to compound 17
T1 construct: purchased Cayman Chem 10009465 (AMC assay (so in the source)); 19380 (HDAC-Glo assay)
T1 sequence (Q9BY41 1-377): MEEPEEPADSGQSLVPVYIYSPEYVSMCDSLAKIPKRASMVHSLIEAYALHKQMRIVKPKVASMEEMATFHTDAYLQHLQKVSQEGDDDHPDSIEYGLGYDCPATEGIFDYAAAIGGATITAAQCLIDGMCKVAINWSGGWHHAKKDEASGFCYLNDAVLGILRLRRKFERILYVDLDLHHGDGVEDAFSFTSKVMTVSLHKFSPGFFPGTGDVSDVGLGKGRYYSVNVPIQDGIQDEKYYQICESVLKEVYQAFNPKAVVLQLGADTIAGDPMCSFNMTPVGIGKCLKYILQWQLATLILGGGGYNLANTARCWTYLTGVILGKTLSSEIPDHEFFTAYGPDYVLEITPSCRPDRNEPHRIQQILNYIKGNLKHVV
Protocol: as §3
HDAC-8, HDAC-9, HDAC-10 and HDAC-11 were assayed using HDAC-Glo™ I/II Kit (Promega Corporation G6421) in a total volume of 110 μl following the manufacturer's instructions.
as §4

[8] = system: IMR-32 neuroblastoma cells; experiment: cytotoxicity, cell survival (CellTiterGlo) in IMR-32; format: cell-based; details: relative to compounds 17 and 8
Protocol: as §5

[9] = mouse, plasma, PO (30 mg/kg) or IV (5 mg/kg), route per parameter not stated

For `CC1(C)CCC(C)(C)c2cc(-c3ccc4cc(C(=O)NO)ccc4c3)ccc21` [Compound 17], the “transcriptional activation of RXR / RXRE-promoter” value (RXR) was “none”, the “expression of Atrogin” value (C2Cl2 cells [1]) was “downregulates” and the expression of myogenin (C2Cl2 cells [1]) was “downregulates”. For the same compound, the “myotubes' length and diameter versus DMSO” value (C2Cl2 cells [2]; 300 nM) was “longer and larger”, the “average nuclei per cell of polynucleated myotubes” value (C2Cl2 cells [2]; 300 nM, 10 days) was 5-10 nuclei per cell and the “fusion of single cells into multinucleated C2Cl2 myotubes” value (C2Cl2 cells [2]) was “enhances the fusion”. The “cellular fusion after 72 hours differentiation versus DMSO” value (C2Cl2 myoblasts) was “extensive cellular fusion”, the “myotube structural atrophy in exhausted media for over 8 days” value (C2Cl2 myoblasts) was “very little structural alteration” and the aqueous solubility (aqueous solubility) was “very poor”. For the same compound, the F (mouse pharmacokinetics; PO (30 mg/kg) and IV (5 mg/kg)) was 19.7%, the AUC(0-inf) (mouse pharmacokinetics; [9]) was 28.7 µM·h and the Cmax (mouse pharmacokinetics; [9]) was 2080 nM. It also gave a clearance (mouse pharmacokinetics; mouse, plasma, PO (30 mg/kg) or IV (5 mg/kg), route per parameter not stated, read-out: CLp) of 10.2 mL/min/kg, an MRT (mouse pharmacokinetics; mouse, plasma, PO (30 mg/kg) or IV (5 mg/kg), route per parameter not stated, read-out: MRT) of 7.1 h and a Tmax (mouse pharmacokinetics; mouse, plasma, PO (30 mg/kg) or IV (5 mg/kg), route per parameter not stated, read-out: Tmax) of 4.3 h. The Vd (mouse pharmacokinetics; mouse, plasma, PO (30 mg/kg) or IV (5 mg/kg), route per parameter not stated, read-out: Vd,ss) was 4.6 L/kg.

In the case of `CC1(C)CCC(C)(C)c2cc(-c3ccc4cc(C(=O)NO)[nH]c4c3)ccc21` [Compound 19], the “transcriptional activation of RXR / RXRE-promoter” value (RXR) is reported as “none” and the “RARE-dependent luciferase expression” value (RAR) is reported as “activated”.

In the case of `CC1(C)CCC(C)(C)c2cc(-c3ccc4nc(C(=O)NO)ccc4c3)ccc21` [Compound 8], the “times more potent than compound 17 in inhibition of purified rat hepatic HDAC” value (purified rat liver HDAC) is reported as “at least three”, the “transcriptional activation of RXR / RXRE-promoter” value (RXR) is reported as “none” and the “RARE-dependent luciferase expression” value (RAR) is reported as “activated”.

With `C/C(=C\c1ccc(C(=O)NO)cc1)c1ccc2c(c1)C(C)(C)CCC2(C)C` [Compound B, (E)-N-hydroxy-4-(2-(5,5,8,8-tetramethyl-5,6,7,8-tetrahydronaphthalen-2-yl)prop-1-en-1-yl)benzamide] the “fusion of single cells into multinucleated C2Cl2 myotubes” value (C2Cl2 cells [2]) was “enhances the fusion”.

With `O=C(CCCCCCNC(=O)c1cnc(N(c2ccccc2)c2ccccc2)nc1)NO` [Ricolinostat] the “Lysin (K) 40 alpha-Tubulin acetylation” value ([3]; 2 uM) was “pronounced Lysin (K) 40 alpha-Tubulin acetylation”.

In the case of `O=C(CCCCCCC(=O)Nc1ccccc1)NO` [SAHA, suberoylanilide hydroxamic acid], the “Lysin (K) 40 alpha-Tubulin acetylation” value ([3]; 2 uM) is reported as “pronounced Lysin (K) 40 alpha-Tubulin acetylation”.

For `CC1(C)CCC(C)(C)c2cc(-c3ccc4cc(C(=O)NO)cnc4c3)ccc21` [Compound 20, N-hydroxy-7-(5,5,8,8-tetramethyl-5,6,7,8-tetrahydronaphthalen-2-yl)quinoline-3-carboxamide], the “transcriptional activation of RXR / RXRE-promoter” value (RXR) was “none” and the “RARE-dependent luciferase expression” value (RAR) was “activated”.

With `CC(/C=C/C(=O)NO)=C\[C@@H](C)C(=O)c1ccc(N(C)C)cc1` [TSA, trichostatin A] the “Lysin (K) 40 alpha-Tubulin acetylation” value ([3]; 1 uM) was “pronounced Lysin (K) 40 alpha-Tubulin acetylation”.

For `CC1(C)CCC(C)(C)c2cc(-c3c[nH]c4cc(C(=O)NO)ccc34)ccc21` [Compound 18], the “transcriptional activation of RXR / RXRE-promoter” value (RXR) was “none”, the “cytotoxic potency compared with compound 17, SAHA, Ricolinistat” value [4] was “more potent than compound 17, SAHA or Ricolinistat” and the “maximal inhibition of HDAC-1 activity” value [5] was roughly 50%. For the same compound, the “cytotoxic potency compared with compound 17, SAHA, Ricolinistat” value [6] was “more potent than compound 17, SAHA or Ricolinistat” and the “RARE-dependent luciferase expression” value (RAR) was “activated”.

For `CC1(C)CCC(C)(C)c2cc(-c3c[nH]c4ccc(C(=O)NO)cc34)ccc21` [Compound 5], the “times more potent than compound 17 in inhibition of purified rat hepatic HDAC” value (purified rat liver HDAC) was “six”, the “transcriptional activation of RXR / RXRE-promoter” value (RXR) was “none” and the “times/fold more potent than compound 17 in HDAC-8 inhibition” value [7] was “over 200”. The “fold more potent than compounds 17 and 8 in killing IMR-32 cells” value [8] was “ten” and the “maximal inhibition of HDAC-1 activity” value [5] was roughly 50%.

For `CC1(C)CCC(C)(C)c2cc(-c3ccc4ccc(C(=O)NO)cc4c3)ccc21` [Compound 21, N-hydroxy-5′,5′,8′,8′,-tetramethyl-5′,6′,7′,8′-tetrahydro-[2,2′-binaphthalene]-7-carboxamide], the “transcriptional activation of RXR / RXRE-promoter” value (RXR) was “none”.
